Results taken from ChEMBL document CHEMBL4411344, “Synthesis and biological evaluation of new long-chain squaramides as anti-chagasic agents in the BALB/c mouse model” (Bioorg Med Chem, 2019).
Calls of active or inactive are those of the source. No cut-off for these calls is given here.

Key:
Trypanosoma cruzi [1] = assay: (§1) Antitrypanosomal activity against Trypanosoma cruzi MHOM/Pe/2011/Arequipa DTU 5 trypomastigotes infected in Balb/c mouse assessed as parasite-free oesophagus at 20 mg/kg, po pretreated once daily for 5 consecutive days starting from day 75 post infection followed by cyclophosphamide-induced immunosuppression on day 100 post infection measured on day 127 post infection by PCR method; format: functional
[2] = Toxicity in Balb/c mouse assessed as death at 20 mg/kg, po once daily for 5 consecutive days starting from day 75 post infection; format: organism-based; conditions: in vivo
Trypanosoma cruzi [3] = assay: Antitrypanosomal activity against Trypanosoma cruzi MHOM/Pe/2011/Arequipa DTU 5 epimastigotes assessed as change in mitochondrial membrane potential at IC25 after 72 hrs by Rho123 staining based flow cytometry relative to control; format: functional
Trypanosoma cruzi [4] = assay: as §1, with “stomach” for “oesophagus”; format: functional
[5] = Nephrotoxicity in Balb/c mouse infected with Trypanosoma cruzi MHOM/Pe/2011/Arequipa DTU 5 trypomastigotes assessed as decrease in serum urea level at 20 mg/kg, po once daily for 5 consecutive days starting from day 10 post infection measured on day 127 post infection relative to control; format: toxicity, organism-based; conditions: in vivo
[6] = Nephrotoxicity in Balb/c mouse infected with Trypanosoma cruzi MHOM/Pe/2011/Arequipa DTU 5 trypomastigotes assessed as decrease in serum uric acid level at 20 mg/kg, po once daily for 5 consecutive days starting from day 75 post infection measured on day 127 post infection relative to control; format: toxicity, organism-based; conditions: in vivo
Trypanosoma cruzi [7] = assay: Antitrypanosomal activity against Trypanosoma cruzi MHOM/Pe/2011/Arequipa DTU 5 trypomastigotes infected in Balb/c mouse assessed as reduction in parasitaemia reactivation at 20 mg/kg, po pretreated once daily for 5 consecutive days starting from day 75 post infection followed by cyclophosphamide-induced immunosuppression on day 100 post infection measured within 1 week post immunosuppression by Neubauer chamber method; format: functional; set-up: scale not given: the % may be the effect or the level left
Trypanosoma cruzi [8] = assay: Trypanocidal activity against Trypanosoma cruzi MHOM/Pe/2011/Arequipa DTU 5 amastigotes infected in African green monkey Vero cells assessed as reduction in number of amastigotes per infected cells at log -0.41 to 1.7 after 72 hrs by Giemsa-staining based assay; format: functional, organism-based
[9] = Nephrotoxicity in Balb/c mouse infected with Trypanosoma cruzi MHOM/Pe/2011/Arequipa DTU 5 trypomastigotes assessed as decrease in serum uric acid level at 20 mg/kg, po once daily for 5 consecutive days starting from day 10 post infection measured on day 16 post infection relative to control; format: toxicity, organism-based; set-up: scale not given: the % may be the effect or the level left; conditions: in vivo
[10] = Nephrotoxicity in Balb/c mouse infected with Trypanosoma cruzi MHOM/Pe/2011/Arequipa DTU 5 trypomastigotes assessed as decrease in serum urea level at 20 mg/kg, po once daily for 5 consecutive days starting from day 75 post infection measured on day 81 post infection relative to control; format: toxicity, organism-based; conditions: in vivo
Trypanosoma cruzi [11] = assay: as §1, with “reduction in Ig-G level in serum” for “parasite-free oesophagus”, “ELISA” for “PCR method”; format: functional, organism-based
Trypanosoma cruzi [12] = assay: as §1, with “spleen” for “oesophagus”, “10” for “75”; format: functional
[13] = Hepatotoxicity in Balb/c mouse infected with Trypanosoma cruzi MHOM/Pe/2011/Arequipa DTU 5 trypomastigotes assessed as increase in alkaline phosphatase level at 20 mg/kg, po once daily for 5 consecutive days starting from day 75 post infection measured on day 81 post infection relative to control; format: toxicity, organism-based; conditions: in vivo
[14] = (§2) Hepatotoxicity in Balb/c mouse infected with Trypanosoma cruzi MHOM/Pe/2011/Arequipa DTU 5 trypomastigotes assessed as increase in ratio of serum AST to GOT level at 20 mg/kg, po once daily for 5 consecutive days starting from day 10 post infection measured on day 16 post infection relative to control; format: toxicity, organism-based; conditions: in vivo
[15] = as §2, with “change” for “increase”, “ALT” for “AST”, “GPT” for “GOT”, “127” for “16”, “by biochemical analysis (reference value: 49 U/L)” for “relative to control”; format: toxicity, organism-based; conditions: in vivo
[16] = Nephrotoxicity in Balb/c mouse infected with Trypanosoma cruzi MHOM/Pe/2011/Arequipa DTU 5 trypomastigotes assessed as decrease in serum urea level at 20 mg/kg, po once daily for 5 consecutive days starting from day 10 post infection measured on day 16 post infection relative to control; format: toxicity, organism-based; conditions: in vivo
Trypanosoma cruzi [17] = assay: Antitrypanosomal activity against Trypanosoma cruzi MHOM/Pe/2011/Arequipa DTU 5 epimastigotes assessed as reduction in DNA and RNA levels at IC25 after 72 hrs by acridine orange staining based flow cytometry relative to control; format: functional
Vero = assay: Cytotoxicity against African green monkey Vero cells assessed as reduction in cell viability after 72 hrs by resazurin dye based assay; conditions: Chlorocebus sabaeus
Trypanosoma cruzi [18] = assay: Trypanocidal activity against Trypanosoma cruzi IRHOD/CO/2008/SN3 DTU 1 epimastigotes after 72 hrs by resazurin dye based assay; format: functional, organism-based; conditions: IRHOD/CO/2008/SN3 DTU 1, 72 h
[19] = Selectivity index, ratio of IC50 for African green monkey Vero cells to IC50 for Trypanosoma cruzi MHOM/Pe/2011/Arequipa DTU 5 epimastigotes; format: toxicity; conditions: read-out: Ratio IC50
[20] = Selectivity index, ratio of IC50 for African green monkey Vero cells to IC50 for Trypanosoma cruzi IRHOD/CO/2008/SN3 DTU 1 amastigotes infected in African green monkey Vero cells; format: toxicity; conditions: read-out: Ratio IC50
Trypanosoma cruzi [21] = assay: Trypanocidal activity against Trypanosoma cruzi TINF/CH/1956/Tulahuen DTU 6 trypomastigotes derived from infected Balb/c mouse after 72 hrs by resazurin dye based assay; format: functional, organism-based; conditions: TINF/CH/1956/Tulahuen DTU 6, 72 h
[22] = Selectivity index, ratio of IC50 for African green monkey Vero cells to IC50 for Trypanosoma cruzi MHOM/Pe/2011/Arequipa DTU 5 amastigotes infected in African green monkey Vero cells; format: toxicity; conditions: read-out: Ratio IC50
Trypanosoma cruzi [23] = assay: Antitrypanosomal activity against Trypanosoma cruzi MHOM/Pe/2011/Arequipa DTU 5 epimastigotes assessed as effect on parasite glycolytic pathway by measuring increase in succinate excretion at IC25 after 72 hrs by 1H NMR method; format: functional, organism-based
[24] = Inhibition of Trypanosoma cruzi MHOM/Pe/2011/Arequipa DTU 5 epimastigotes Fe-SOD by UV-Visible spectrophotometric method
Trypanosoma cruzi [25] = assay: Antitrypanosomal activity against Trypanosoma cruzi MHOM/Pe/2011/Arequipa DTU 5 epimastigotes assessed as effect on parasite glycolytic pathway by measuring increase in glycerol excretion at IC25 after 72 hrs by 1H NMR method; format: functional
Trypanosoma cruzi [26] = assay: Trypanocidal activity against Trypanosoma cruzi MHOM/Pe/2011/Arequipa DTU 5 amastigotes infected in African green monkey Vero cells after 72 hrs by Giemsa-staining based microscopic assay; format: functional, organism-based; conditions: MHOM/Pe/2011/Arequipa DTU 5, Vero
Trypanosoma cruzi [27] = assay: Trypanocidal activity against Trypanosoma cruzi MHOM/Pe/2011/Arequipa DTU 5 amastigotes infected in African green monkey Vero cells assessed as reduction in infected cells after 72 hrs by Giemsa-staining based assay; format: functional, organism-based; conditions: MHOM/Pe/2011/Arequipa DTU 5, Vero
[28] = Selectivity index, ratio of IC50 for African green monkey Vero cells to IC50 for Trypanosoma cruzi IRHOD/CO/2008/SN3 DTU 1 trypomastigotes derived from infected Balb/c mouse; format: toxicity; conditions: read-out: Ratio IC50
[29] = Selectivity index, ratio of IC50 for African green monkey Vero cells to IC50 for Trypanosoma cruzi MHOM/Pe/2011/Arequipa DTU 5 trypomastigotes derived from infected Balb/c mouse; format: toxicity; conditions: read-out: Ratio IC50
Trypanosoma cruzi [30] = assay: Trypanocidal activity against Trypanosoma cruzi IRHOD/CO/2008/SN3 DTU 1 trypomastigotes derived from infected Balb/c mouse after 72 hrs by resazurin dye based assay; format: functional, organism-based; conditions: IRHOD/CO/2008/SN3 DTU 1, 72 h

| Structure (SMILES) | Activity (Trypanosoma cruzi [1]) | Activity [2] | Activity (Trypanosoma cruzi [3]) [%] | Activity (Trypanosoma cruzi [4]) | Activity [5] [mg/dL] | Activity [6] [mg/dL] | Activity (Trypanosoma cruzi [7]) | Activity (Trypanosoma cruzi [8]) | Activity [9] [%] | Activity [10] [mg/dL] | Activity (Trypanosoma cruzi [11]) | Activity (Trypanosoma cruzi [12]) | Activity [13] [U/L] | Activity [14] [U/L] | Activity [15] [U/L] | Activity [16] [mg/dL] | inhibition (INH) (Trypanosoma cruzi [17]) [%] | IC50 (Vero) [µM] | IC50 (Trypanosoma cruzi [18]) [µM] | selectivity ratio [19] | further results |
| --- | --- | --- | --- | --- | --- | --- | --- | --- | --- | --- | --- | --- | --- | --- | --- | --- | --- | --- | --- | --- | --- |
| O=C(Cn1ccnc1[N+](=O)[O-])NCc1ccccc1 [BENZNIDAZOLE] | 55% | Non-Toxic | -35.38 | 55% | 20 to 30 | 10 to 20 | 51% | Active | > 40 | 20 to 30 | Active | 33% | > 40 | > 40 | 49 | 20 to 30 | 22.38 | – | – | – | – |
| CCCCCCNc1c(N(C)CCCN(C)C)c(=O)c1=O | inactive | Non-Toxic | 4.69 | inactive | 10 to 20 | 10 to 20 | inactive | Active | > 40 | 10 to 20 | inactive | inactive | – | 30 to 40 | 49 | 10 to 20 | 31.13 | 900 | 14.3 | 44.3 | selectivity ratio [20]: 18; IC50 (Trypanosoma cruzi [21]): 17.2 µM; selectivity ratio [22]: 52.1; Activity (Trypanosoma cruzi [23]): Active; IC50 [24]: 25.3 µM; Activity (Trypanosoma cruzi [25]): Active; IC50 (Trypanosoma cruzi [26]): 17.3 µM; IC50 (Trypanosoma cruzi [27]): 60.5 µM; selectivity ratio [28]: 57; selectivity ratio [29]: 139; IC50 (Trypanosoma cruzi [30]): 15.8 µM |
| CCCCCCCCCCCCCCCCNc1c(N(C)CCCN(C)C)c(=O)c1=O | 78% | Non-Toxic | -80.61 | 78% | 10 to 20 | – | 21% | Active | > 40 | 10 to 20 | Active | 67% | 10 to 20 | 10 to 20 | 49 | 10 to 20 | 49.05 | 679 | 16 | 93.1 | selectivity ratio [20]: 35.9; IC50 (Trypanosoma cruzi [21]): 4.7 µM; selectivity ratio [22]: 3090; Activity (Trypanosoma cruzi [23]): Active; IC50 [24]: 69.8 µM; Activity (Trypanosoma cruzi [25]): 43%; IC50 (Trypanosoma cruzi [26]): 0.2 µM; IC50 (Trypanosoma cruzi [27]): 5.6 µM; selectivity ratio [28]: 126; selectivity ratio [29]: 154; IC50 (Trypanosoma cruzi [30]): 5.4 µM |
